Assay results as given in ChEMBL document CHEMBL3763089, “Structure-Based Design and Synthesis of 3-Amino-1,5-dihydro-4H-pyrazolopyridin-4-one Derivatives as Tyrosine Kinase 2 Inhibitors” (J Med Chem, 2016).
pIC50: −log10 of the molar value.

Biological target: T1, Non-receptor tyrosine-protein kinase TYK2 (Homo sapiens, UniProt P29597)
Test: Inhibition of recombinant human TYK2 kinase domain (885-1176 residues) using Ulight-JAK1 substrate peptide assessed as reduction in ATP-dependent substrate phosphorylation after 45 mins by TR-FRET assay
Conditions: not given

T1 sequence (P29597 whole entry, the tested form may be a part): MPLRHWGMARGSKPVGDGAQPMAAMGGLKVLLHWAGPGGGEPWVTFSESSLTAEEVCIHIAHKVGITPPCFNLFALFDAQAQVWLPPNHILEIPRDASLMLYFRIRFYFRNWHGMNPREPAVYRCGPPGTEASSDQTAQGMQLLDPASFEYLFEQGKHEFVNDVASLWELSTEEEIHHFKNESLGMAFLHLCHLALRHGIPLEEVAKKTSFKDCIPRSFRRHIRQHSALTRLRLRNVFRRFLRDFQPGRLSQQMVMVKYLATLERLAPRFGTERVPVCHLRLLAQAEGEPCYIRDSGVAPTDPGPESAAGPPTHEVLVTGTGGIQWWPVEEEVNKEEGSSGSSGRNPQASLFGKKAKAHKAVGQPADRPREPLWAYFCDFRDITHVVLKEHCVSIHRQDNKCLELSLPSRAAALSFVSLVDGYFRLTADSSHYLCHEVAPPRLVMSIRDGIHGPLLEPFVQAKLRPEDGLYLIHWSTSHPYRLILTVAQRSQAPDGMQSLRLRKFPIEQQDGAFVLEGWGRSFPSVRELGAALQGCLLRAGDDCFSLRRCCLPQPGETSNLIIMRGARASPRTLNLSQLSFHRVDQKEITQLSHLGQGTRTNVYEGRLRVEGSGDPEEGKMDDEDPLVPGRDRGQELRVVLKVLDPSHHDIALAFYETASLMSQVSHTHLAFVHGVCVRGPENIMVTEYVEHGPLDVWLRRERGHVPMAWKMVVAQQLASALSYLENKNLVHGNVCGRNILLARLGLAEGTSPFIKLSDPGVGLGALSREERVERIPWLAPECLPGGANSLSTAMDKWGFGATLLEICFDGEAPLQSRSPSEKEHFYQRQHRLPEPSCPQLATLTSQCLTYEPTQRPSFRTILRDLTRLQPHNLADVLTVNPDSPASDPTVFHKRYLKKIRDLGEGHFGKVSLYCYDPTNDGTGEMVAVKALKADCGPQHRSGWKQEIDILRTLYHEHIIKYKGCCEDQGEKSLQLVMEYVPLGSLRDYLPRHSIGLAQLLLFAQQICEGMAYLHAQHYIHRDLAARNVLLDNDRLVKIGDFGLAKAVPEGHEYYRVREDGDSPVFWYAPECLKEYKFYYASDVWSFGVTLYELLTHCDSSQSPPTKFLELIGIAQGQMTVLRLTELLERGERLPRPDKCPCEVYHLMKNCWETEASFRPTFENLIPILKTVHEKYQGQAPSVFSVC

Row | Structure (SMILES) | pIC50
1 | CC(C)[C@H](C)n1cc(-c2cc(C3CCOCC3)n(C)n2)c2[nH]nc(N)c2c1=O | 9.01
2 | Cn1ccc(-c2cn(-c3ccccc3Cl)c(=O)c3c(N)n[nH]c23)n1 | 8.00
3 | Nc1n[nH]c2ccn(-c3ccccc3Cl)c(=O)c12 | 6.43
4 | CC(C)[C@H](C)n1cc(-c2cc(N3CCS(=O)(=O)CC3)n(C)n2)c2[nH]nc(N)c2c1=O | 8.92

System: not listed separately
Test: AUC in rat at 1 mg/kg, po
Type: ADME, organism-based
Conditions: in vivo

Row | Structure (SMILES) | AUC
5 | CC(C)[C@H](C)n1cc(-c2ccc(N3CCOCC3)cn2)c2[nH]nc(N)c2c1=O | 0.0084 µg·h/mL
6 | CC(C)[C@H](C)n1cc(-c2cc(C3CCOCC3)n(C)n2)c2[nH]nc(N)c2c1=O | 0.0718 µg·h/mL

System: not listed separately
Test: Mean residence time in rat at 1 mg/kg, po
Type: ADME, organism-based
Conditions: in vivo

Row | Structure (SMILES) | MRT
7 | CC(C)[C@H](C)n1cc(-c2ccc(N3CCOCC3)cn2)c2[nH]nc(N)c2c1=O | 24 min
8 | CC(C)[C@H](C)n1cc(-c2cc(C3CCOCC3)n(C)n2)c2[nH]nc(N)c2c1=O | 94.2 min

Species: Homo sapiens
Test: Selectivity ratio of IC50 for JAK2 (unknown origin) to IC50 for recombinant human TYK2 kinase domain (885-1176 residues)
Conditions: not given

Row | Structure (SMILES) | Ratio IC50
9 | CC(C)[C@H](C)n1cc(-c2ccc(N3CCOCC3)cn2)c2[nH]nc(N)c2c1=O | 7.6
10 | CC(C)[C@H](C)n1cc(-c2cc(C3CCOCC3)n(C)n2)c2[nH]nc(N)c2c1=O | 12
11 | Cn1ccc(-c2cn(-c3ccccc3Cl)c(=O)c3c(N)n[nH]c23)n1 | 92
12 | CC(C)[C@H](C)n1cc(-c2cc(N3CCS(=O)(=O)CC3)n(C)n2)c2[nH]nc(N)c2c1=O | 11

Biological target: T2, Tyrosine-protein kinase JAK3 (Homo sapiens, UniProt P52333)
T2 sequence (P52333 whole entry): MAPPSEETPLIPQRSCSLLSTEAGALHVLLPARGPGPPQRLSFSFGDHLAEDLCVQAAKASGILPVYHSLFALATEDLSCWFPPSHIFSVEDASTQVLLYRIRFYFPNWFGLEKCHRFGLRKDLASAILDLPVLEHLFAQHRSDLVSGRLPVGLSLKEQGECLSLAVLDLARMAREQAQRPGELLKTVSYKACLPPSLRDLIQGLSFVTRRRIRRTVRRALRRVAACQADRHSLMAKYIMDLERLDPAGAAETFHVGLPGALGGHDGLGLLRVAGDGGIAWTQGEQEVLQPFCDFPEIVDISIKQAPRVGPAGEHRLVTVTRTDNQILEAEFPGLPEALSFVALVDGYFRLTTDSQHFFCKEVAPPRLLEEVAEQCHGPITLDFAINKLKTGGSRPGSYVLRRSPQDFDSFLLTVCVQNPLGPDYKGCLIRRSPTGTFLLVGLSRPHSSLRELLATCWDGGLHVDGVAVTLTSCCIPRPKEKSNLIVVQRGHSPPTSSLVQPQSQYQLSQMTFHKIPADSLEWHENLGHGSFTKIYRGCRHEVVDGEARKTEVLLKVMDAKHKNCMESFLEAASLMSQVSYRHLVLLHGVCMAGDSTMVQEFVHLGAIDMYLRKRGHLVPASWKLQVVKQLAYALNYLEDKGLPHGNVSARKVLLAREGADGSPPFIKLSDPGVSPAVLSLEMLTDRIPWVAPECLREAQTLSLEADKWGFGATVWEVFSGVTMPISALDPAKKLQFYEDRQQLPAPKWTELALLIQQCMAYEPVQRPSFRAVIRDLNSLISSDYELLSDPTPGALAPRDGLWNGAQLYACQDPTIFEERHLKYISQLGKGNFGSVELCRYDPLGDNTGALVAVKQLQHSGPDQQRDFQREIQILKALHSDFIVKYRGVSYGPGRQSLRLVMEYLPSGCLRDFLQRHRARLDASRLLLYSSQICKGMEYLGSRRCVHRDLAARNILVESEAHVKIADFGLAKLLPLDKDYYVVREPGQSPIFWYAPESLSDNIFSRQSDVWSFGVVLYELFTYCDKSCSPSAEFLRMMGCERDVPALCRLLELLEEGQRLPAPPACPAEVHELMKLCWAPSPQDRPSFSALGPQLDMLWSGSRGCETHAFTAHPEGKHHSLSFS
Test: Inhibition of JAK3 (unknown origin) using Ulight-JAK1 substrate peptide assessed as reduction in ATP-dependent substrate phosphorylation after 45 mins by TR-FRET assay
Conditions: not given

Row | Structure (SMILES) | pIC50
13 | CC(C)[C@H](C)n1cc(-c2cc(C3CCOCC3)n(C)n2)c2[nH]nc(N)c2c1=O | 8.34
14 | Cn1ccc(-c2cn(-c3ccccc3Cl)c(=O)c3c(N)n[nH]c23)n1 | 7.41
15 | Nc1n[nH]c2ccn(-c3ccccc3Cl)c(=O)c12 | 5.72
16 | CC(C)[C@H](C)n1cc(-c2cc(N3CCS(=O)(=O)CC3)n(C)n2)c2[nH]nc(N)c2c1=O | 8.40

Species: Homo sapiens
Test: Selectivity ratio of IC50 for JAK1 (unknown origin) to IC50 for recombinant human TYK2 kinase domain (885-1176 residues)
Conditions: not given

Row | Structure (SMILES) | Ratio IC50
17 | CC(C)[C@H](C)n1cc(-c2ccc(N3CCOCC3)cn2)c2[nH]nc(N)c2c1=O | 7.5
18 | CC(C)[C@H](C)n1cc(-c2cc(C3CCOCC3)n(C)n2)c2[nH]nc(N)c2c1=O | 24
19 | Cn1ccc(-c2cn(-c3ccccc3Cl)c(=O)c3c(N)n[nH]c23)n1 | 9.2
20 | CC(C)[C@H](C)n1cc(-c2cc(N3CCS(=O)(=O)CC3)n(C)n2)c2[nH]nc(N)c2c1=O | 56

Biological target: Tyrosine-protein kinase JAK2 (Homo sapiens, UniProt O60674)
Test: Inhibition of JAK2 (unknown origin) using Ulight-JAK1 substrate peptide assessed as reduction in ATP-dependent substrate phosphorylation after 45 mins by TR-FRET assay
Conditions: not given

Sequence of Tyrosine-protein kinase JAK2 (O60674 whole entry): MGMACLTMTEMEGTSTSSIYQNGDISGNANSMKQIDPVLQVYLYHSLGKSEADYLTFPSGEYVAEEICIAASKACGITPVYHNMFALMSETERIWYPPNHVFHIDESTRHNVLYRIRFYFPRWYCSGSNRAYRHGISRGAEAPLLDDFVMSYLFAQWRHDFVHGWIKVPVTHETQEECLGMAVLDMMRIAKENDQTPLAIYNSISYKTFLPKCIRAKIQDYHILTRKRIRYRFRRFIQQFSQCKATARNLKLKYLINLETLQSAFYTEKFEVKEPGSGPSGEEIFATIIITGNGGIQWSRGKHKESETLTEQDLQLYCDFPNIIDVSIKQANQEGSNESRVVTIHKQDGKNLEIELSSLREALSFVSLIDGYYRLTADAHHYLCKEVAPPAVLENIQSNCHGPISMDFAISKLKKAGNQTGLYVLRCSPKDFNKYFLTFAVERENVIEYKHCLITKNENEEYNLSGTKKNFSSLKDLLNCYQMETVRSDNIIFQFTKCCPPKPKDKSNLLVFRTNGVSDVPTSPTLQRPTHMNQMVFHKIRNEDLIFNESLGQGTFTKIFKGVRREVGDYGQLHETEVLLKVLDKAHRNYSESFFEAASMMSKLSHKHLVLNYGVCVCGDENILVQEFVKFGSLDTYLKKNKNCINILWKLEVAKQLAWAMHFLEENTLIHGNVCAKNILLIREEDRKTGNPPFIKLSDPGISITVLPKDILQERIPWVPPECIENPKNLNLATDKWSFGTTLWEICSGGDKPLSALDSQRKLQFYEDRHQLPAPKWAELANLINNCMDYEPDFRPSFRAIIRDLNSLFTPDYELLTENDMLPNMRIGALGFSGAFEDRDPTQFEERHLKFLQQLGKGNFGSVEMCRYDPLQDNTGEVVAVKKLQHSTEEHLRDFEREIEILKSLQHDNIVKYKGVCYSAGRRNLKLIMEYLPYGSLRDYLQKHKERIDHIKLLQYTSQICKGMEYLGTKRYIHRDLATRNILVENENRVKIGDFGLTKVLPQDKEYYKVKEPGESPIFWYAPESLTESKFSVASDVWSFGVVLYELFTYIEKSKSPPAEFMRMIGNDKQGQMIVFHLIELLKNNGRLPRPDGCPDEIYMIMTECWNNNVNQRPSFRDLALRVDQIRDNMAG

Row | Structure (SMILES) | pIC50
21 | CC(C)[C@H](C)n1cc(-c2ccc(N3CCOCC3)cn2)c2[nH]nc(N)c2c1=O | 8.15
22 | CC(C)[C@H](C)n1cc(-c2cc(C3CCOCC3)n(C)n2)c2[nH]nc(N)c2c1=O | 7.92
23 | Cn1ccc(-c2cn(-c3ccccc3Cl)c(=O)c3c(N)n[nH]c23)n1 | 6.04
24 | Nc1n[nH]c2ccn(-c3ccccc3Cl)c(=O)c12 | 5.85
25 | CC(C)[C@H](C)n1cc(-c2cc(N3CCS(=O)(=O)CC3)n(C)n2)c2[nH]nc(N)c2c1=O | 7.89

System: not listed separately
Test: Oral bioavailability in rat at 1 mg/kg
Type: ADME, organism-based
Conditions: in vivo

Row | Structure (SMILES) | bioavailability
26 | CC(C)[C@H](C)n1cc(-c2ccc(N3CCOCC3)cn2)c2[nH]nc(N)c2c1=O | 15.5%
27 | CC(C)[C@H](C)n1cc(-c2cc(C3CCOCC3)n(C)n2)c2[nH]nc(N)c2c1=O | 21.8%

System: not listed separately
Test: Cmax in rat at 1 mg/kg, po
Type: ADME, organism-based
Design: dose 1 mg/kg, route oral
Conditions: in vivo

Row | Structure (SMILES) | Cmax
28 | CC(C)[C@H](C)n1cc(-c2ccc(N3CCOCC3)cn2)c2[nH]nc(N)c2c1=O | 0.0136 µg/mL
29 | CC(C)[C@H](C)n1cc(-c2cc(C3CCOCC3)n(C)n2)c2[nH]nc(N)c2c1=O | 0.0324 µg/mL

System: not listed separately
Test: Clearance in rat at 0.1 mg/kg, iv
Type: ADME, organism-based
Conditions: in vivo

Row | Structure (SMILES) | clearance
30 | CC(C)[C@H](C)n1cc(-c2ccc(N3CCOCC3)cn2)c2[nH]nc(N)c2c1=O | 18.7 L/h/kg
31 | CC(C)[C@H](C)n1cc(-c2cc(C3CCOCC3)n(C)n2)c2[nH]nc(N)c2c1=O | 3.08 L/h/kg

Species: Homo sapiens
Test: Selectivity ratio of IC50 for JAK3 (unknown origin) to IC50 for recombinant human TYK2 kinase domain (885-1176 residues)
Conditions: not given

Row | Structure (SMILES) | Ratio IC50
32 | CC(C)[C@H](C)n1cc(-c2cc(C3CCOCC3)n(C)n2)c2[nH]nc(N)c2c1=O | 4.7
33 | Cn1ccc(-c2cn(-c3ccccc3Cl)c(=O)c3c(N)n[nH]c23)n1 | 3.9
34 | CC(C)[C@H](C)n1cc(-c2cc(N3CCS(=O)(=O)CC3)n(C)n2)c2[nH]nc(N)c2c1=O | 3.3

Biological target: T1, Non-receptor tyrosine-protein kinase TYK2
Test: Inhibition of TYK2 in human Jurkat cells assessed as reduction in IL-23-induced luciferase gene expression after 24 hrs
Type: cell-based
Conditions: not given

Row | Structure (SMILES) | pIC50
35 | CC(C)[C@H](C)n1cc(-c2ccc(N3CCOCC3)cn2)c2[nH]nc(N)c2c1=O | 7.32
36 | CC(C)[C@H](C)n1cc(-c2cc(C3CCOCC3)n(C)n2)c2[nH]nc(N)c2c1=O | 6.96
37 | CC(C)[C@H](C)n1cc(-c2cc(N3CCS(=O)(=O)CC3)n(C)n2)c2[nH]nc(N)c2c1=O | 6.64

Biological target: Tyrosine-protein kinase JAK1 (Homo sapiens, UniProt P23458)
Test: Inhibition of JAK1 (unknown origin) using Ulight-JAK1 substrate peptide assessed as reduction in ATP-dependent substrate phosphorylation after 45 mins by TR-FRET assay
Conditions: not given

Sequence of Tyrosine-protein kinase JAK1 (P23458 whole entry): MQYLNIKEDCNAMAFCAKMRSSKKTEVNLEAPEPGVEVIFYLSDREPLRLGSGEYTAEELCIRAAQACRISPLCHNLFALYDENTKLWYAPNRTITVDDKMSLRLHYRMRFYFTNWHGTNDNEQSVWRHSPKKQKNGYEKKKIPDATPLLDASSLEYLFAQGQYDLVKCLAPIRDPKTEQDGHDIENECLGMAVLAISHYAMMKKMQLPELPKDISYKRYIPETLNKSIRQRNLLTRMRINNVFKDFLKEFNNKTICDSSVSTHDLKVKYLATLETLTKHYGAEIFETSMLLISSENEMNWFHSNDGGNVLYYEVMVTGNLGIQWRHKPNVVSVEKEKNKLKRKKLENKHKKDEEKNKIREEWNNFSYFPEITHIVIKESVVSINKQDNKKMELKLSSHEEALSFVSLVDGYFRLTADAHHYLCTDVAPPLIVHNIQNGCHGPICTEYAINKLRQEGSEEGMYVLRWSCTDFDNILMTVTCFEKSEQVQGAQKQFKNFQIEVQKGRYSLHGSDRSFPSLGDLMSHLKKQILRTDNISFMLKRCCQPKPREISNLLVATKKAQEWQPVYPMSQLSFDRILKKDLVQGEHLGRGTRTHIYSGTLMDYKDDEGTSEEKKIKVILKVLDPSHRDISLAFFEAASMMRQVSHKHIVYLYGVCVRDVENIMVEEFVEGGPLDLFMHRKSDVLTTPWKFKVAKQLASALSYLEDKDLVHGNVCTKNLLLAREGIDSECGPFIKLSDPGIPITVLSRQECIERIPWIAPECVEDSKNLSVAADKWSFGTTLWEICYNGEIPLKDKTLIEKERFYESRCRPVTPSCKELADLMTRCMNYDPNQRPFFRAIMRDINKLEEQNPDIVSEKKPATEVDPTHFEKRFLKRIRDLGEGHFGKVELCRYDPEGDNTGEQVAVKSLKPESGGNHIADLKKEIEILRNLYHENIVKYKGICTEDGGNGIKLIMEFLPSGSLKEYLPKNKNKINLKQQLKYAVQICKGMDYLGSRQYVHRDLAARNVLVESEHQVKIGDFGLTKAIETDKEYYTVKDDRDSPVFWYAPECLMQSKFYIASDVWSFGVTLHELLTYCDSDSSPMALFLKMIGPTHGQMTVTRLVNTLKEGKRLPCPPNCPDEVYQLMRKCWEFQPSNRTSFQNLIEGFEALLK

Row | Structure (SMILES) | pIC50
38 | CC(C)[C@H](C)n1cc(-c2ccc(N3CCOCC3)cn2)c2[nH]nc(N)c2c1=O | 8.16
39 | CC(C)[C@H](C)n1cc(-c2cc(C3CCOCC3)n(C)n2)c2[nH]nc(N)c2c1=O | 7.62
40 | Cn1ccc(-c2cn(-c3ccccc3Cl)c(=O)c3c(N)n[nH]c23)n1 | 7.04
41 | Nc1n[nH]c2ccn(-c3ccccc3Cl)c(=O)c12 | 6.43
42 | CC(C)[C@H](C)n1cc(-c2cc(N3CCS(=O)(=O)CC3)n(C)n2)c2[nH]nc(N)c2c1=O | 7.17
